Data: ChEMBL document CHEMBL5038615, “Discovery of a cinnamyl piperidine derivative as new neddylation inhibitor for gastric cancer treatment” (Eur J Med Chem, 2021)

How the values were obtained:
[1] = test system: A549; assay: Antiproliferative activity against human A549 cells assessed as inhibition of cell proliferation measured after 72 hrs by MTT assay; type: functional, cell-based; details: A549, 72 h
[2] = test system: MGC-803; assay: Antiproliferative activity against human MGC-803 cells assessed as inhibition of cell proliferation measured after 72 hrs by MTT assay; type: functional, cell-based; details: MGC-803, 72 h
[3] = test system: MCF7; assay: Antiproliferative activity against human MCF7 cells assessed as inhibition of cell proliferation measured after 72 hrs by MTT assay; type: functional, cell-based; details: MCF7, 72 h
[4] = test system: HepG2; assay: Antiproliferative activity against human HepG2 cells assessed as inhibition of cell proliferation measured after 72 hrs by MTT assay; type: functional, cell-based; details: HepG2, 72 h
[5] = test system: HGC-27; assay: Antiproliferative activity against human HGC-27 cells assessed as inhibition of cell proliferation measured after 72 hrs by MTT assay; type: functional, cell-based; details: HGC-27, 72 h
[6] = Cytotoxicity against human GES1 cells assessed as inhibition of cell proliferation measured after 72 hrs by MTT assay; type: toxicity, cell-based

| SMILES | IC50 [1] [µM] | IC50 [2] [µM] | IC50 [3] [µM] | IC50 [4] [µM] | IC50 [5] [µM] | IC50 at 72 h [6] [µM] |
| --- | --- | --- | --- | --- | --- | --- |
| O=C(NCc1ccccc1)C1CCN(C/C=C/c2ccccc2)CC1 | > 100 | > 100 | > 100 | > 100 | – | – |
| O=C(Nc1nccs1)C1CCN(C/C=C/c2ccccc2)CC1 | 34.9 | 16.4 | 28.6 | 22.4 | – | – |
| NS(=O)(=O)OC[C@@H]1CC(n2ccc3c(N[C@H]4CCc5ccccc54)ncnc32)C[C@@H]1O (single isomer, unassigned) [PEVONEDISTAT] | 47.8 | 5.16 | > 100 | 8.15 | 1.25 | 13.5 |
| O=C(Nc1cc(-c2cccc(Br)c2)on1)C1CCN(C/C=C/c2ccccc2)CC1 | 6.53 | 4.61 | 4.87 | 4.42 | – | – |
| CCCCc1ccc(NC(=O)C2CCN(C/C=C/c3ccccc3)CC2)cc1 | 5.91 | 2.57 | 5.87 | 4.32 | – | – |
| CCc1ccc(NC(=O)C2CCN(C/C=C/c3ccccc3)CC2)cc1 | 19.6 | 11.6 | 20 | 23.3 | – | – |
| COc1cccc(NC(=O)C2CCN(C/C=C/c3ccccc3)CC2)c1 | 50.5 | 37.2 | 42.6 | 78.6 | – | – |
| O=C(Nc1cccc(Br)c1)C1CCN(C/C=C/c2ccccc2)CC1 | 16.4 | 9.11 | 11.5 | 19.2 | – | – |
| O=C(Nc1nc2ccc(Br)cc2s1)C1CCN(C/C=C/c2ccccc2)CC1 | 17.7 | 4.38 | 14.6 | 32.1 | – | – |
| N#Cc1ccc(NC(=O)C2CCN(C/C=C/c3ccccc3)CC2)cc1 | 40.2 | 28.2 | 44.5 | 38.3 | – | – |
| O=C(Nc1cccc2cccnc12)C1CCN(C/C=C/c2ccccc2)CC1 | 51.6 | 38.1 | 34.8 | 29.5 | – | – |
| CC(C)c1ccc(NC(=O)C2CCN(C/C=C/c3ccccc3)CC2)cc1 | 9.43 | 5.2 | 9.1 | 12.2 | – | – |
| O=C(Nc1ccccn1)C1CCN(C/C=C/c2ccccc2)CC1 | 89.3 | 45.2 | 67.2 | 51.1 | – | – |
| COc1ccc(NC(=O)C2CCN(C/C=C/c3ccccc3)CC2)cc1 | 83.8 | 58.2 | > 100 | 88.8 | – | – |
| O=C(Nc1cccc(Cl)c1)C1CCN(C/C=C/c2ccccc2)CC1 | 19.1 | 11.3 | 16.1 | 20 | – | – |
| CN1CCN(c2ccc(NC(=O)C3CCN(C/C=C/c4ccccc4)CC3)cc2)CC1 | 19.9 | 14 | 44 | 35.2 | – | – |
| O=c1[nH]cc(F)c(=O)[nH]1 [FLUOROURACIL] | 15.1 | 12.1 | 9.49 | 6.69 | – | – |
| CCCc1ccc(NC(=O)C2CCN(C/C=C/c3ccccc3)CC2)cc1 | 9.47 | 5.21 | 9.03 | 9.41 | – | – |
| O=C(Nc1ccc(F)c(Br)c1)C1CCN(C/C=C/c2ccccc2)CC1 | 11.7 | 9.27 | 13.5 | 8.19 | – | – |
| COc1ccccc1NC(=O)C1CCN(C/C=C/c2ccccc2)CC1 | > 100 | 71.2 | > 100 | 91.2 | – | – |
| O=C(Nc1ccccc1)C1CCN(C/C=C/c2ccccc2)CC1 | 69.7 | 57.9 | 60.2 | 90.9 | – | – |
| Cc1ccc(NC(=O)C2CCN(C/C=C/c3ccccc3)CC2)cc1 | 29.6 | 24.1 | 30 | 33.9 | – | – |
| O=C(Nc1cccc(C(F)(F)F)c1)C1CCN(C/C=C/c2ccccc2)CC1 | 15.6 | 9.59 | 16.1 | 11.4 | – | – |
| O=C(Nc1cccc(F)c1)C1CCN(C/C=C/c2ccccc2)CC1 | 43.3 | 23.3 | 33 | 51.1 | – | – |
